In experiment [1] the target is HLA class I molecule. Put plainly: HLA class I peptide binding affinity assay (inhibition of 125I-radiolabeled probe peptide binding to purified HLA). The settings on record: read-out: Observed Affinity (IC50, (nM)). Further details: species or system human. On the procedure: Epstein-Barr virus (EBV)-transformed homozygous cell lines, fibroblasts, CIR, or 721.22 transfectants are used as sources of HLA class I molecules. […] HLA molecules are purified from lysates by affinity chromatography. The lysates are passed over a column of Sepharose CL-4B beads coupled to an appropriate antibody. […] A 1/25 volume of 2.0 M Tris, pH 6.8, is added to the eluate to reduce the pH to […]. Eluates are then concentrated by centrifugation in Centriprep 30 concentrators (Amicon, Beverly, MA). Protein content is evaluated by a BCA protein assay (Pierce Chemical Co., Rockford, IL) and confirmed by SDS-PAGE.
Following incubation, MHC-peptide complexes are separated from free peptide by gel filtration on 7.8 mm×15 cm TSK200 columns (TosoHaas 16215, Montgomeryville, PA). Because the large size of the radiolabeled peptide used for the DRB1*1501 (DR2w2(31) assay makes separation of bound from unbound peaks more difficult under these conditions, all DRB1*1501 (DR2w2(31) assays were performed using a 7.8 mm×30 cm TSK2000 column eluted at 0.6 mLs/min. The eluate from the TSK columns is passed through a Beckman 170 radioisotope detector, and radioactivity is plotted and integrated using a Hewlett-Packard 3396A integrator, and the fraction of peptide bound is determined.
Radiolabeled peptides are iodinated using the chloramine-T method. […] All subsequent inhibition and direct binding assays are performed using these HLA concentrations.
Since under these conditions [label]<[HLA] and IC50≥[HLA], the measured IC50 values are reasonable approximations of the true KD values. […] For database purposes, and inter-experiment comparisons, relative binding values are compiled. These values can subsequently be converted back into IC50 nM values by dividing the IC50 nM of the positive controls for inhibition by the relative binding of the peptide of interest.
HLA binding assays were used to evaluate either the affinity of interaction of a given epitope with a selected HLA molecule or the stability.
The measurements are plotted against the predicted affinity in FIG. 1.

For experiment [2], the system named is HLA Class I molecules. The experiment is described as follows: HLA class I binding stability assay (pMHC-I complex dissociation, 125I-labeled β2m, scintillation counts). Further details: species or system human.
The mark [3] stands for this setting: allele A02.01, pMHC-I dissociation at 37° C.

The results in this text go back to patent US20230414735A1, “NEOANTIGENS AND METHODS OF THEIR USE” (priority 2016, published 2023).

Where two headings read alike, the source gives them in different places. Where no end group is shown, it is not given here.

What is called IC50 is the midpoint of a concentration-inhibition curve. For the molecule `CC[C@H](C)[C@H](NC(=O)[C@@H](N)CC(C)C)C(=O)N[C@@H](CCSC)C(=O)N[C@@H](CCC(N)=O)C(=O)N[C@@H](CC(C)C)C(=O)N[C@@H](CCSC)C(=O)N1CCC[C@H]1C(=O)N[C@@H](Cc1ccccc1)C(=O)NCC(=O)N[C@@H](CS)C(=O)O`, the IC50 in experiment [1] (allele A02.01) was 177 nM. The “Stability (T1/2 (h))” value in experiment [2] (setting [3]) amounted to 0.4 h.

Turning to `CC(C)C[C@H](NC(=O)[C@H](CC(C)C)NC(=O)[C@H](CC(C)C)NC(=O)CNC(=O)[C@H](Cc1ccc(O)cc1)NC(=O)[C@H](CC(C)C)NC(=O)[C@@H]1CCCN1C(=O)[C@@H](NC(=O)[C@@H](N)C(C)C)C(C)C)C(=O)O`, the IC50 in experiment [1] (allele A02.01) worked out at 1040 nM. For the same molecule, the “Stability (T1/2 (h))” value in experiment [2] (setting [3]) is 0.6 h.

Consider `CC(C)C[C@H](NC(=O)[C@@H](NC(=O)[C@H](CC(=O)O)NC(=O)[C@H](CC(C)C)NC(=O)[C@@H](NC(=O)[C@@H](N)Cc1ccc(O)cc1)[C@@H](C)O)C(C)C)C(=O)N[C@@H](CCC(=O)O)C(=O)N[C@@H](CCCNC(=N)N)C(=O)N[C@@H](CS)C(=O)O`, for which the IC50 in experiment [1] (allele A02.01) was determined as 1760 nM. Besides, the “Stability (T1/2 (h))” value in experiment [2] (allele A02.01, 37° C.) is 6.6 h.

For the molecule ALSASNSCF, the IC50 in experiment [1] (allele A02.01) is 728 nM. Moreover, the “Stability (T1/2 (h))” value in experiment [2] (allele A02.01, 37° C.) is listed as 0.3 h.

Consider ALSASNSCFI, for which the IC50 in experiment [1] (allele A02.01) is 226 nM. Further, the “Stability (T1/2 (h))” value in experiment [2] (allele A02.01, 37° C.) came out at 0.8 h.

On to ALSEHCPTT, for which the IC50 in experiment [1] (allele A02.01) was found to be 79 nM. For the same molecule, the “Stability (T1/2 (h))” value in experiment [2] (allele A02.01, 37° C.) was found to be 27.3 h.

In the case of CLADVLLSV, the IC50 in experiment [1] (allele A02.01) is 219 nM. Besides, the “Stability (T1/2 (h))” value in experiment [2] (setting [3]) is 24 h.

Take FSGEYIPTV: the IC50 in experiment [1] (allele A02.01) was determined as 3 nM. Moreover, the “Stability (T1/2 (h))” value in experiment [2] (allele A02.01, 37° C.) worked out at 6.8 h.

As to GLLAFWDSQV, in experiment [1] (allele A02.01), the IC50 came out at 10 nM. Moreover, the “Stability (T1/2 (h))” value in experiment [2] (allele A02.01, 37° C.) is on record as 14.2 h.

Take GLLLEMLDA: the IC50 in experiment [1] (allele A02.01) was 558 nM. Moreover, in experiment [2] (setting [3]), the “Stability (T1/2 (h))” value was found to be 0.4 h.

With GVYTFLPST, in experiment [1] (allele A02.01), the IC50 worked out at 779 nM. For the same molecule, in experiment [2] (setting [3]), the “Stability (T1/2 (h))” value worked out at 1.3 h.

For GVYTFLPSTL, the IC50 in experiment [1] (allele A02.01) was determined as 1200 nM. Besides, in experiment [2] (setting [3]), the “Stability (T1/2 (h))” value was determined as 0.4 h.

With ILMELMAGG, the IC50 in experiment [1] (allele A02.01) is 223 nM. The “Stability (T1/2 (h))” value in experiment [2] (setting [3]) is recorded as 0.5 h.

As to IMQLMPFGC, the IC50 in experiment [1] (allele A02.01) stood at 1610 nM. For the same molecule, the “Stability (T1/2 (h))” value in experiment [2] (setting [3]) is 0.4 h.

As to KGPELFPLI, the results for the IC50 in experiment [1] (allele A02.01) and in experiment [1] (allele A24.02) were 101 nM and 14 nM, respectively. Also, the “Stability (T1/2 (h))” value is on record as 0.3 h in experiment [2] (setting [3]) and 1.7 h in experiment [2] (allele A24.02, pMHC-I dissociation at 37° C.).

For the molecule KLFSCLSFL, the IC50 in experiment [1] (allele A02.01) was determined as 6 nM. The “Stability (T1/2 (h))” value in experiment [2] (setting [3]) is reported as 14.3 h; in experiment [2] (allele A03.01, pMHC-I dissociation at 37° C.) it was 0.8 h.

As to KLGGGQHGEV, the IC50 in experiment [1] (allele A02.01) is 387 nM. Further, the “Stability (T1/2 (h))” value in experiment [2] (setting [3]) is listed as 0.4 h.

For LLAFWDSQV, the IC50 in experiment [1] (allele A02.01) is 68 nM. The “Stability (T1/2 (h))” value in experiment [2] (allele A02.01, 37° C.) stood at 12.8 h.

For LLQEFDVQEA, the IC50 in experiment [1] (allele A02.01) was found to be 45 nM. Further, the “Stability (T1/2 (h))” value in experiment [2] (allele A02.01, 37° C.) is reported as 2.5 h.

In the case of LMELMAGGDL, the IC50 in experiment [1] (allele A02.01) was determined as 311 nM. The “Stability (T1/2 (h))” value in experiment [2] (setting [3]) was found to be 8.9 h.

Regarding LQMDFLVHPA, the IC50 in experiment [1] (allele A02.01) was 68 nM. Also, the “Stability (T1/2 (h))” value in experiment [2] (setting [3]) is 1.5 h.

Turning to LVVVGACGV, the IC50 in experiment [1] (allele A02.01) amounted to 1210 nM. The “Stability (T1/2 (h))” value in experiment [2] (allele A02.01, 37° C.) turned out to be 0.6 h.

MNIANLLGA: the IC50 in experiment [1] (allele A02.01) came to 128 nM. Further, the “Stability (T1/2 (h))” value in experiment [2] (allele A02.01, 37° C.) was 0.3 h.

As for MNWRPILTII, the IC50 in experiment [1] (allele A02.01) was 1030 nM. Also, in experiment [2] (allele A02.01, 37° C.), the “Stability (T1/2 (h))” value is reported as 0.4 h.

On to PLCDLLLEM, for which the IC50 in experiment [1] (allele A02.01) was determined as 602 nM. Further, in experiment [2] (setting [3]), the “Stability (T1/2 (h))” value was 0.8 h.

Turning to PLCDLLLEML, the IC50 in experiment [1] (allele A02.01) is 2010 nM. Further, the “Stability (T1/2 (h))” value in experiment [2] (setting [3]) turned out to be 0.9 h.

PLNDLLLEM: the IC50 in experiment [1] (allele A02.01) turned out to be 151 nM. The “Stability (T1/2 (h))” value in experiment [2] (setting [3]) was 4.2 h.

Take PLSDLLLEM: the IC50 in experiment [1] (allele A02.01) turned out to be 404 nM. Moreover, in experiment [2] (setting [3]), the “Stability (T1/2 (h))” value is listed as 2.7 h.

With PLYGLLLEM, the IC50 in experiment [1] (allele A02.01) was 640 nM. Besides, the “Stability (T1/2 (h))” value in experiment [2] (setting [3]) turned out to be 0.7 h.

On to RVAKIADFGM, for which the IC50 in experiment [1] (allele A02.01) is 125 nM. Moreover, the “Stability (T1/2 (h))” value in experiment [2] (setting [3]) came out at 0.5 h; in experiment [2] (allele B07.02, pMHC-I dissociation at 37° C.) it was 0.2 h.

SLYIVGFYGA: the IC50 in experiment [1] (allele A02.01) turned out to be 390 nM. For the same molecule, the “Stability (T1/2 (h))” value in experiment [2] (allele A02.01, 37° C.) was 0.4 h.
